Source: ChEMBL document CHEMBL4800727 (2021)

Key:
[1] = molecular target: D(2) dopamine receptor (Homo sapiens) (UniProt P14416); settings: Compound concentration 10.0 uM
[2] = molecular target: 5-hydroxytryptamine receptor 2C (Homo sapiens, UniProt P28335); assay: GPCRScan assay: inhibition of 5-HT2C; parameters: radioligand conc. used [nm] 1.0 – 2.5, parental cells HEK T
[3] = molecular target: Inhibitor of nuclear factor kappa-B kinase subunit alpha (Homo sapiens) (UniProt O15111); assay: conserved helix-loop-helix ubiquitous kinase Millipore kinase panel; settings: Compound concentration 10.0 uM
[4] = molecular target: Cyclin-dependent kinase 2/cyclin A (Homo sapiens) (UniProt P24941+P20248+P78396); assay: cyclin-dependent kinase 2 / clyclinA Millipore kinase panel; format: protein-complex assay; settings: Compound concentration 10.0 uM
[5] = molecular target: CDK7/Cyclin H/MNAT1 (Homo sapiens) (UniProt P51946+P50613+P51948); assay: Cyclin-dependent kinase 7 / cyclinH / MAT Millipore kinase panel; format: protein-complex assay; settings: Compound concentration 10.0 uM
[6] = molecular target: Death-associated protein kinase 2 (Homo sapiens) (UniProt Q9UIK4); assay: death-associated protein kinase 2 Millipore kinase panel; settings: Compound concentration 10.0 uM
[7] = molecular target: Death-associated protein kinase 3 (Homo sapiens) (UniProt O43293); assay: death-associated protein kinase 3 Millipore kinase panel; settings: Compound concentration 10.0 uM
[8] = molecular target: Discoidin domain-containing receptor 2 (Homo sapiens) (UniProt Q16832); assay: discoidin domain receptor tyrosine kinase 2 Millipore kinase panel; settings: Compound concentration 10.0 uM
[9] = molecular target: Ephrin type-A receptor 5 (Homo sapiens) (UniProt P54756); assay: EPH receptor A5 Millipore kinase panel; settings: Compound concentration 10.0 uM
[10] = molecular target: Ephrin type-B receptor 3 (Homo sapiens) (UniProt P54753); assay: EPH receptor B3 Millipore kinase panel; settings: Compound concentration 10.0 uM
[11] = molecular target: Tyrosine-protein kinase Fer (Homo sapiens) (UniProt P16591); assay: fer (fps/fes related) tyrosine kinase Millipore kinase panel; settings: Compound concentration 10.0 uM
[12] = molecular target: Fibroblast growth factor receptor 4 (Homo sapiens) (UniProt P22455); assay: fibroblast growth factor receptor 4 Millipore kinase panel; settings: Compound concentration 10.0 uM
[13] = molecular target: G protein-coupled receptor kinase 5 (Homo sapiens) (UniProt P34947); assay: G protein-coupled receptor kinase 5 Millipore kinase panel; settings: Compound concentration 10.0 uM
[14] = molecular target: Homeodomain-interacting protein kinase 1 (Homo sapiens) (UniProt Q86Z02); assay: homeodomain interacting protein kinase 1 Millipore kinase panel; settings: Compound concentration 10.0 uM
[15] = molecular target: MAP kinase-interacting serine/threonine-protein kinase 2 (Homo sapiens) (UniProt Q9HBH9); assay: MAP kinase interacting serine/threonine kinase 2 Millipore kinase panel; settings: Compound concentration 10.0 uM
[16] = molecular target: Mitogen-activated protein kinase 1 (Homo sapiens) (UniProt P28482); assay: mitogen-activated protein kinase 1 Millipore kinase panel; settings: Compound concentration 10.0 uM
[17] = molecular target: Mitogen-activated protein kinase 10 (Homo sapiens) (UniProt P53779); assay: mitogen-activated protein kinase 10 Millipore kinase panel; settings: Compound concentration 10.0 uM
[18] = molecular target: Myosin light chain kinase, smooth muscle (Homo sapiens) (UniProt Q15746); assay: myosin light chain kinase Millipore kinase panel; settings: Compound concentration 10.0 uM
[19] = molecular target: BDNF/NT-3 growth factors receptor (Homo sapiens) (UniProt Q16620); assay: neurotrophic tyrosine kinase, receptor, type 2 Millipore kinase panel; settings: Compound concentration 10.0 uM
[20] = molecular target: Serine/threonine-protein kinase PLK1 (Homo sapiens) (UniProt P53350); assay: polo-like kinase 1 Millipore kinase panel; settings: Compound concentration 10.0 uM
[21] = molecular target: Focal adhesion kinase 1 (Homo sapiens) (UniProt Q05397); assay: PTK2 protein tyrosine kinase 2 Millipore kinase panel; settings: Compound concentration 10.0 uM
[22] = molecular target: Receptor-interacting serine/threonine-protein kinase 2 (Homo sapiens) (UniProt O43353); assay: receptor-interacting serine-threonine kinase 2 Millipore kinase panel; settings: Compound concentration 10.0 uM
[23] = molecular target: Serine/threonine-protein kinase STK11 (Homo sapiens) (UniProt Q15831); assay: serine/threonine kinase 11 Millipore kinase panel; settings: Compound concentration 10.0 uM
[24] = molecular target: Serine/threonine-protein kinase Sgk1 (Homo sapiens) (UniProt O00141); assay: serum/glucocorticoid regulated kinase 1 Millipore kinase panel; settings: Compound concentration 10.0 uM
[25] = molecular target: Receptor tyrosine-protein kinase erbB-4 (Homo sapiens) (UniProt Q15303); assay: v-erb-a erythroblastic leukemia viral oncogene homolog 4 Millipore kinase panel; settings: Compound concentration 10.0 uM
[26] = molecular target: Mast/stem cell growth factor receptor Kit (Homo sapiens) (UniProt P10721); assay: v-kit Hardy-Zuckerman 4 feline sarcoma viral oncogene homolog Millipore kinase panel; settings: Compound concentration 10.0 uM
[27] = molecular target: Tyrosine-protein kinase Lyn (Homo sapiens) (UniProt P07948); assay: v-yes-1 Yamaguchi sarcoma viral related oncogene homolog Millipore kinase panel; settings: Compound concentration 10.0 uM
[28] = molecular target: Tyrosine-protein kinase ZAP-70 (Homo sapiens) (UniProt P43403); assay: zeta-chain associated protein kinase 70kDa Millipore kinase panel; settings: Compound concentration 10.0 uM
[29] = molecular target: Dual specificity calcium/calmodulin-dependent 3',5'-cyclic nucleotide phosphodiesterase 1B (Homo sapiens, UniProt Q01064); assay: hPDE1B1 PDE scan
[30] = molecular target: cGMP-inhibited 3',5'-cyclic phosphodiesterase 3A (Homo sapiens, UniProt Q14432); assay: hPDE3A PDE scan
[31] = molecular target: 5-hydroxytryptamine receptor 1B (Rattus norvegicus) (UniProt P28564); assay: r5HT1B Cerep panel; settings: Compound concentration 10.0 uM
[32] = molecular target: Kappa-type opioid receptor (Rattus norvegicus) (UniProt P34975); assay: rOP2 Cerep panel; settings: Compound concentration 10.0 uM
[33] = molecular target: Adenosine receptor A1 (Homo sapiens) (UniProt P30542); assay: hA1 Cerep panel; settings: Compound concentration 10.0 uM
[34] = species on record: Rattus norvegicus; assay: rBZD Cerep panel; settings: Compound concentration 10.0 uM
[35] = molecular target: B2 bradykinin receptor (Homo sapiens) (UniProt P30411); assay: hBK2 Cerep panel; settings: Compound concentration 10.0 uM
[36] = molecular target: Glutamate NMDA receptor (Rattus norvegicus) (UniProt P35439+Q00959+Q00960+Q00961+Q62645+Q8VHN2+Q9R1M7); assay: rNMDA Cerep panel; format: protein-complex assay; settings: Compound concentration 10.0 uM
[37] = glyine Cerep panel; settings: Compound concentration 10.0 uM
[38] = species on record: Rattus norvegicus; assay: rGlutamate (ionotropic) MDL Cerep panel; settings: Compound concentration 10.0 uM
[39] = molecular target: T1, Muscarinic acetylcholine receptor M1 (Homo sapiens) (UniProt P11229); assay: hM1 Cerep panel; settings: Compound concentration 10.0 uM
T1 sequence (whole entry): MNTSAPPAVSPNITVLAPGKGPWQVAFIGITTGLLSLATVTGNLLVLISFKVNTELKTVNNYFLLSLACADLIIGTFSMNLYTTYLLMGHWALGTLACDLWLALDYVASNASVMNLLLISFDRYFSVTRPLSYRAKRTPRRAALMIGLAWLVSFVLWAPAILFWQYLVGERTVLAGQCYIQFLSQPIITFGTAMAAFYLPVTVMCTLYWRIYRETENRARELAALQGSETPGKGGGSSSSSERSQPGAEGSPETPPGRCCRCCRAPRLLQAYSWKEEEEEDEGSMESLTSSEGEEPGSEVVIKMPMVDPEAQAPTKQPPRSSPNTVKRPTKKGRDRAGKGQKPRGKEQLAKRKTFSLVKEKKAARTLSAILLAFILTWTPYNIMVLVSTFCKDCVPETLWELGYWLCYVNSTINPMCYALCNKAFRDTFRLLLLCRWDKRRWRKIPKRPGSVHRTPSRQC

[40] = molecular target: Substance-P receptor (Homo sapiens) (UniProt P25103); assay: hNK1 Cerep panel; settings: Compound concentration 10.0 uM
[41] = species on record: Rattus norvegicus; assay: rCL channel Cerep panel; settings: Compound concentration 10.0 uM
[42] = molecular target: 5-hydroxytryptamine receptor 2B (Homo sapiens, UniProt P41595); assay: h5HT2B Cerep panel; settings: Compound concentration 10.0 uM
[43] = species on record: Homo sapiens; assay: hSigma Cerep panel; settings: Compound concentration 10.0 uM
[44] = molecular target: D(1B) dopamine receptor (Homo sapiens) (UniProt P21918); settings: Compound concentration 10.0 uM
[45] = species on record: Rattus norvegicus; settings: Compound concentration 10.0 uM

Dual specificity calcium/calmodulin-dependent 3',5'-cyclic nucleotide phosphodiesterase 1B, sequence (Q01064 whole entry): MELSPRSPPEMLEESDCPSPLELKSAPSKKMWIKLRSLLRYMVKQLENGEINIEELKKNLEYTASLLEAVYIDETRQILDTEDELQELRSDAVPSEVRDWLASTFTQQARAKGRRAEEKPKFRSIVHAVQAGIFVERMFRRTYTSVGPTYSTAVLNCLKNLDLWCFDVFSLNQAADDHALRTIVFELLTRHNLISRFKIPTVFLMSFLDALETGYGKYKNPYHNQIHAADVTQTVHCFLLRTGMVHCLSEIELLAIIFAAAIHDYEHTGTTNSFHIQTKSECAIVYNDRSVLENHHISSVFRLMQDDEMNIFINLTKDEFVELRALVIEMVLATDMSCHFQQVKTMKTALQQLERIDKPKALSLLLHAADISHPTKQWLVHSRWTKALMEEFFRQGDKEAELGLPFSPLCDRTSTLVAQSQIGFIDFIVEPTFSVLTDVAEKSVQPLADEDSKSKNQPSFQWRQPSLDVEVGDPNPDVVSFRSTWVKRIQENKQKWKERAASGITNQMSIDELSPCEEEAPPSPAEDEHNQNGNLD
G protein-coupled receptor kinase 5 (Homo sapiens), sequence (P34947 whole entry, looked up): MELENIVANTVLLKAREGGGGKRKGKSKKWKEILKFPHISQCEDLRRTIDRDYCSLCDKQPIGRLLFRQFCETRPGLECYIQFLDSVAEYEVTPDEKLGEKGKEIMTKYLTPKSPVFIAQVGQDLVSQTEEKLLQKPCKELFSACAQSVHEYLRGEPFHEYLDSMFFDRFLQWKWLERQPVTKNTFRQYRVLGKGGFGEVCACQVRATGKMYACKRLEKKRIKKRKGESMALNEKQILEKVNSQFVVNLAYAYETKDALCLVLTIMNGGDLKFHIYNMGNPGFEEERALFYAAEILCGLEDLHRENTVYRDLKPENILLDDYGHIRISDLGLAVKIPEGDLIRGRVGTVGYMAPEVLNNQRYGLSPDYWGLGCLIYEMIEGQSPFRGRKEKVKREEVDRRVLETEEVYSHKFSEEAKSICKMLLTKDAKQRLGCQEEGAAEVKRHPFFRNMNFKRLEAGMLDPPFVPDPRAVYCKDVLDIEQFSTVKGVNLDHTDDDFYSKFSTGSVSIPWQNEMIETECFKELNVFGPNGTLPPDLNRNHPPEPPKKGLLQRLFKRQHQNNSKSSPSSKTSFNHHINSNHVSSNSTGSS
D(1B) dopamine receptor (Homo sapiens), sequence (P21918 whole entry): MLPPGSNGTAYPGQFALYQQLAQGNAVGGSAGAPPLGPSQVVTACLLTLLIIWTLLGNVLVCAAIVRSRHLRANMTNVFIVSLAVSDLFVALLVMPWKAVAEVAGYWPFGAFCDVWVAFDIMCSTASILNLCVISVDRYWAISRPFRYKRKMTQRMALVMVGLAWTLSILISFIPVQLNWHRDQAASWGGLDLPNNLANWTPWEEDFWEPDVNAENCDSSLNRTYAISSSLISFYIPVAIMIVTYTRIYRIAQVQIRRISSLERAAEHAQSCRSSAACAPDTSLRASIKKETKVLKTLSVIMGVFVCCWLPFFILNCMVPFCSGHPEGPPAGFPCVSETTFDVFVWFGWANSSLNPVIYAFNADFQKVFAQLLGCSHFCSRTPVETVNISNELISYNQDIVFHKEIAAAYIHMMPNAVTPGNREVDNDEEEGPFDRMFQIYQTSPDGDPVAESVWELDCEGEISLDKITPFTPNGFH
Tyrosine-protein kinase ZAP-70 (Homo sapiens), sequence (P43403 whole entry): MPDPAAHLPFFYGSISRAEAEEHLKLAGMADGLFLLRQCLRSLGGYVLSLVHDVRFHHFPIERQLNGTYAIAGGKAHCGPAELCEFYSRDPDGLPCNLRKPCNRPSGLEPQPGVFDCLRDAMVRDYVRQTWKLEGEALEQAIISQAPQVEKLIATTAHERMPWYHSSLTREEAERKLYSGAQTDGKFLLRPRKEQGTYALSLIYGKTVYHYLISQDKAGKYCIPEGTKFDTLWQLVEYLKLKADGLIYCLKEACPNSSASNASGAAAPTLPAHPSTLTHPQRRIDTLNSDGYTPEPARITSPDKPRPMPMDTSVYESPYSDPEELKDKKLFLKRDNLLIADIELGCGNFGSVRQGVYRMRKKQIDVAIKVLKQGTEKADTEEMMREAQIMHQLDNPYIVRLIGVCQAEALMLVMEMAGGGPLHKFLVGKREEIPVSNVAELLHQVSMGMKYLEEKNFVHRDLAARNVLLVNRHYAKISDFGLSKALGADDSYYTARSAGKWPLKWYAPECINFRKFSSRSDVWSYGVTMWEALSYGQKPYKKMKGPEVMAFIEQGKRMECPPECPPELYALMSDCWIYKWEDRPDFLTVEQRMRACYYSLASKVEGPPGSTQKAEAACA
BDNF/NT-3 growth factors receptor (Homo sapiens), sequence (Q16620 32-822 limits assumed): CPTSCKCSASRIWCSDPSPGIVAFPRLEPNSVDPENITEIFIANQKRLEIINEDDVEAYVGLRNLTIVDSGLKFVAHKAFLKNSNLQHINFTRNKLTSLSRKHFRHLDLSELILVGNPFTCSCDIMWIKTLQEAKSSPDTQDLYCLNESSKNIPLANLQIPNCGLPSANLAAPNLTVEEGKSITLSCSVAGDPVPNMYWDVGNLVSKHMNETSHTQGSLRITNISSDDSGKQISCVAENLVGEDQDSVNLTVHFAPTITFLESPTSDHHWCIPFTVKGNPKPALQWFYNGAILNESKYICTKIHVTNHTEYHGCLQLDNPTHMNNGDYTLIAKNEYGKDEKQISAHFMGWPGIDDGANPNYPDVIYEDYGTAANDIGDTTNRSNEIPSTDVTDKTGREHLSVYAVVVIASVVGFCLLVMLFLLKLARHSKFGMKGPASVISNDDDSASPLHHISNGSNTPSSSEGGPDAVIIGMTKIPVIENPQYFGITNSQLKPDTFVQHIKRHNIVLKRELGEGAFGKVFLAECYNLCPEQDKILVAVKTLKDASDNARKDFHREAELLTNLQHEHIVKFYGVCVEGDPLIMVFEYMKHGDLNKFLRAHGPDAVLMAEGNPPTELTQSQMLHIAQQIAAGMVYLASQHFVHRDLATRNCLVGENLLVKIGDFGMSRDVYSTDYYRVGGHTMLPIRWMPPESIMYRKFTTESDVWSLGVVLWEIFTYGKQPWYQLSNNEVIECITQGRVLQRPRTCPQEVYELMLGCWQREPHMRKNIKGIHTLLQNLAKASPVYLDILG
Mast/stem cell growth factor receptor Kit (Homo sapiens), sequence (P10721 whole entry): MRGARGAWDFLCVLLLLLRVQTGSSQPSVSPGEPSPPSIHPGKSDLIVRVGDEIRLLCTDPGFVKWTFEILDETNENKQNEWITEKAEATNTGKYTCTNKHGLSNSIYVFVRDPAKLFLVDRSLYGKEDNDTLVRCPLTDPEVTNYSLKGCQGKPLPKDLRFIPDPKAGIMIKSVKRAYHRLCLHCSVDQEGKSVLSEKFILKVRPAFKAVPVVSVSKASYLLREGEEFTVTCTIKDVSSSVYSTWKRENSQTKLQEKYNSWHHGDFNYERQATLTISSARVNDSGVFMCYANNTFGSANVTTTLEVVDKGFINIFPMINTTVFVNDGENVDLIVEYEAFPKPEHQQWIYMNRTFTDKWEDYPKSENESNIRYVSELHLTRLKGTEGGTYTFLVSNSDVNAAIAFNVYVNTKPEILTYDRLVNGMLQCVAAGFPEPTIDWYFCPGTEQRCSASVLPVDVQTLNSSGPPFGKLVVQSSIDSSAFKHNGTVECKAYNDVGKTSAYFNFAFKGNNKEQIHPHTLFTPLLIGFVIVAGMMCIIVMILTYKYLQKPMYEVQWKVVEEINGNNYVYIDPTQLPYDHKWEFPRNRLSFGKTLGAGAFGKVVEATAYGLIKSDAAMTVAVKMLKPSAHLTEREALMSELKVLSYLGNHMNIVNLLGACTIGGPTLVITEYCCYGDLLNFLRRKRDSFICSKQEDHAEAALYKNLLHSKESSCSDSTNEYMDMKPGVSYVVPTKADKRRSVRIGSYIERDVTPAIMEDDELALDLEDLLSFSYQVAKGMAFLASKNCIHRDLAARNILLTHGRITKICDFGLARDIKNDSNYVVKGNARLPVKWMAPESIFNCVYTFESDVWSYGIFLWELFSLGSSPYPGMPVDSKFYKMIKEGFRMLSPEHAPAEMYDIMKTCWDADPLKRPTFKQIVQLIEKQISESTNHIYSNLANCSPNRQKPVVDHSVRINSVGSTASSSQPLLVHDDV
D(2) dopamine receptor (Homo sapiens), sequence (P14416 whole entry): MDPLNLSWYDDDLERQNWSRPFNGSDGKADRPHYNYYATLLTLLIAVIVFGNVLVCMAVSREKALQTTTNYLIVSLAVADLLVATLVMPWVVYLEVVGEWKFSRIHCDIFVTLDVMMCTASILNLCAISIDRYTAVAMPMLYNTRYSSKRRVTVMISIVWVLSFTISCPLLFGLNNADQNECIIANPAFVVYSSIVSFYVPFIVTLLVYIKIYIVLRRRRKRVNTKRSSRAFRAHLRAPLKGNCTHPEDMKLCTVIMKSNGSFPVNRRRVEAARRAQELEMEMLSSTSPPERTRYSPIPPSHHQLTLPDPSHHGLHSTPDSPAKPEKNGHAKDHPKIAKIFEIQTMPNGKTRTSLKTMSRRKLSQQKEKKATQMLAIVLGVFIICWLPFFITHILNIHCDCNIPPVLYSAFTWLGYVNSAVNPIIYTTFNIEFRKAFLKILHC
Death-associated protein kinase 2 (Homo sapiens), sequence (Q9UIK4 whole entry, looked up): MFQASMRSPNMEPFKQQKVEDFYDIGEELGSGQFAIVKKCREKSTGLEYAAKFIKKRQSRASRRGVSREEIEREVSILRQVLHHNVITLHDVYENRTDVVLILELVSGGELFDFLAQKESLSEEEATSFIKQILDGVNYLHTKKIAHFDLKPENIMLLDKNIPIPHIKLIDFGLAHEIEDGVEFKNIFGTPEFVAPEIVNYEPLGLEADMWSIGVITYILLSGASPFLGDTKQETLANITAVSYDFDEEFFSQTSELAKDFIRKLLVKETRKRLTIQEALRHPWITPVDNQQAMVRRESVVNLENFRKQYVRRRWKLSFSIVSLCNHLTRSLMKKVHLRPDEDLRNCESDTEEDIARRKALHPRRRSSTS

Molecule c1ccc(C2CCN(c3cnc4c(N5CCOCC5)nccn34)CC2)cc1 has an inhibition [1] of 1.22%.
With COCCc1ccc(-c2c(C)nc3c(N4CCOCC4)ccnn23)cn1 [JNJ-42396302] the Ki [2] was 2.2 µM, the inhibition [3] was -3% and the inhibition [4] was 2%. The inhibition [5] was 1%, the inhibition [6] was -1% and the inhibition [7] was -2%. For the same molecule, the inhibition [8] was -5%, the inhibition [9] was -9% and the inhibition [10] was 3%. For the same molecule, the inhibition [11] was 0%, the inhibition [12] was -7% and the inhibition [13] was -4%. It also gave an inhibition [14] of 11%, an inhibition [15] of 10% and an inhibition [16] of 1%. It also gave an inhibition [17] of 18%, an inhibition [18] of 2% and an inhibition [19] of -5%. It also gave an inhibition [20] of 0%, an inhibition [21] of -2% and an inhibition [22] of -6%. The inhibition [23] was 4%, the inhibition [24] was -3% and the inhibition [25] was 9%. The inhibition [26] was 4%, the inhibition [27] was -1% and the inhibition [28] was 4%. The Ki [29] was 3.4 µM, the Ki [30] was 49 µM and the effect [31] was -2.55%. The effect [32] was 1.7%, the effect [33] was 11.3% and the effect [34] was 41.5%. For the same molecule, the effect [35] was 7.1%, the effect [36] was -9.45% and the effect [37] was -23.1%. The effect [38] was -6.2%, the effect [39] was 2.2% and the effect [40] was 3.05%. For the same molecule, the effect [41] was -12.3%, the effect [42] was 2.4% and the effect [43] was 1.55%. For the same molecule, the inhibition [44] was 25.3% and the inhibition [45] was 2.18%.
